The values below come from US7375088B2, “Polyene polyketides, processes for their production and their use as a pharmaceutical” (Thallion Pharmaceuticals Inc., priority 2003, dated 2008).

The subject of test [1] is Aspergillus fumigatus. Kind of test: Disk diffusion assay (MEC and zone of inhibition). It is filed as cell-based. Background: A growth-free zone around the sample is the usual read-out of agar diffusion tests.
The subject of test [2] is C. albicans SC5314. Nature of the test: Mouse model of disseminated candidiasis (survival). It is filed as in vivo. The following applies: for Median survival: CD-1 mice infected i.v. with C. albicans SC5314, observed 21 days. The procedure:
Compound 2(a) was provided as a dry powder with an estimated purity of 95+%. Fungizone (amphotericin B desoxycholate, to be used as a comparitor), was also provided as a dry powder with an estimated purity of 95+%. The compound 2(a) and Fungizone were stored as dry powders at −80° C. until the day of administration.
Female mice (species Mus musculus, strain CD-1, Charles River) with body weight range of 22-24 g were used in the study. […] All animal experiments were performed at the Ste-Justine Hospital (Montreal, Quebec) according to ethical guidelines of animal experimentation of the ethical committee of the hospital. During the study, dead or apparently sick animals were promptly removed and sick mice were euthanized upon removal from the cage.
The animals were maintained in rooms under controlled conditions of temperature (23±2° C.), humidity (45±5%), photoperiodicity (12 hrs light/12 hrs dark) and air exchange. The animals were housed in polycarbonate cages (4/single cage) equipped to provide food and water. Sterile wood shavings were used for animal bedding and the bedding was replaced every other day. Food (Harlam Tecklab, Canada) and autoclaved tap water was provided ab libitum, the food being placed in the metal lid on top of the cage. Water bottles were equipped with rubber stoppers and sipper tubes and were cleaned, sterilized and replaced once a week.
Six groups of mice (10 mice per group) were infected intravenously with 3×10^6 CFU of C. albicans SC5314 as previously described (see Dubois, N., et al., Microbiology 1998, 144: 2299-2310). Twenty-four hours after infection, each individual group of mice was treated with Compound 2(a) (1 or 3 mg/kg i.p.), Fungizone (0.25, 0.5 or 1 mg/kg i.p.) as comparitor, or sham-treated with sterile water containing 5% dextrose and 3% DMSO. Each animal received 100 μl of test solution.
The treatment regimen was repeated once daily for a total of 4 days. The mice were observed twice daily for signs of morbidity over 21 days. Moribund animals were scored as non-survivors and euthanized by CO2 inhalation. […]

In test [3] the test system is Candida albicans ATCC 10231. Nature of the test: MIC broth microdilution assay. Background: In broth dilution the organism is exposed to a series of concentrations in liquid medium.
Procedure: (§1) Test compound preparation: The test article was prepared as 100× stock solutions in DMSO, with concentrations ranging from 3.2 mg/ml to 0.0625 mg/ml (a two-fold dilution series over 10 points). The first dilution (3.2 mg/ml) was prepared by resuspending 0.5 mg of each test article in 156.25 μl of DMSO. The stock is then serially diluted by two-fold increments to obtain the desired concentration range.
(§2) Inoculum preparation: For fungal strains, the inoculum was prepared as follows. From an overnight culture in Yeast Media broth, cell density was adjusted in 0.85% saline to 0.5 McFarland. This procedure yielded a stock suspension of about 5×10^6 cells/ml. Following thorough vortexing, a working suspension was prepared by diluting the stock 1:50 in RPMI 1640, and then further diluting it 1:20 with RPMI 1640 to obtain the 2× test inoculum (about 5×10^3 cells/ml). For filamentous fungi, the inoculum was prepared as follows. […]
(§3) 50 μl of the final cell dilution (yeast, filamentous fungi or bacteria) of each indicator strain was added to each corresponding well of the microplate containing 50 μl of diluted drug or media alone. […] MIC readings were determined at 24 and 48 hrs for the Candida and Aspergillus species, and at 48 and 72 hrs for Cryptococcus neoformans. MIC readout for each indicator was determined as the lowest concentration of test compound resulting in total absence of growth.
Test [4] concerns Candida krusei LSPQ 0309. Kind of test: MIC broth microdilution assay. As to conditions: Pichia kudriavzevii.
Procedure: as §1, §2, §3
The test system of test [5] is Candida glabrata LSPQ 0250. Kind of test: MIC broth microdilution assay. As to conditions: Nakaseomyces glabratus.
Procedure: as §1, §2, §3
For test [6], the system named is Candida lusitaniae ATCC 200953. Kind of test: MIC broth microdilution assay. As to conditions: Clavispora lusitaniae.
Procedure: as §1, §2, §3
The subject of test [7] is Saccharomyces cerevisiae ATCC 9763. Nature of the test: MIC broth microdilution assay.
Procedure: as §1, §2, §3

The structures appear in SMILES notation. In brackets after ≈: the same amount, converted by molar mass.

The term MIC denotes the least concentration at which growth counts as inhibited. A lower MIC goes with a more susceptible organism. Consider `CC(C=CCCC=CC=CC=CC=CC(=O)NC1=C(O)CCC1=O)C(O)C(C)C(O)C=CC=CC=CC=CC=CCC(OC1OC(C)C(O)C(O)C1O)C(C)C(=O)CC(O)CC(O)CC(O)C=CCC(O)CC(O)CC(O)CC(O)C=CCC(O)CC(O)CCCN` (stereo not shown) [Compound 2(a), 56-Amino-15,17,33,35,37,41,43,45,47,51,53-undecahydroxy-14,16,30-trimethyl-31-oxo-29-(3,4,5-trihydroxy-6-methyl-tetrahydro-pyran-2-yloxy)-hexapentaconta-2,4,6,8,12,18,20,22,24,26,38,48-dodecaenoic acid (2-hydroxy-5-oxo-cyclopent-1-enyl)-amide], for which the “antifungal activity in disk diffusion assay” value in test [1] is given as “active”. In test [1] (at the MEC, 24 hours of incubation), the “ZOI (zone of inhibition of fungal growth calculated for each MEC)” value was 2.7 mm. Besides, the “MEC (minimum effective concentration)” value in test [1] (disk diffusion, 24 hours of incubation) came out at 2.5 µg/mL. Moreover, the Median survival in test [2] (1.0 mg/kg i.p. once daily for 4 days) worked out at 8.5 days; in test [2] (3.0 mg/kg i.p. once daily for 4 days), 20 days. In addition, the “increase of the median survival time of infected mice” value in test [2] (versus vehicle (median survival 5 days)) was found to be 4 fold. In addition, the minimum inhibitory concentration (MIC) in test [3] (ATCC10231, 24 h) is 4 µg/mL (≈ 3.08 µM); in test [3] (ATCC10231, 48 h) it was 4 µg/mL (≈ 3.08 µM); in test [4] (LSPQ0309, 24 h) it was 8 µg/mL (≈ 6.17 µM); in test [4] (LSPQ0309, 48 h) it was 8 µg/mL (≈ 6.17 µM); in test [5] (LSPQ0250, 24 h) it was 4 µg/mL (≈ 3.08 µM); in test [5] (LSPQ0250, 48 h), 8 µg/mL (≈ 6.17 µM). The MIC was 4 µg/mL (≈ 3.08 µM) in test [6] (ATCC200953, 24 h); 4 µg/mL (≈ 3.08 µM) in test [6] (ATCC200953, 48 h); 4 µg/mL (≈ 3.08 µM) in test [7] (ATCC9763, 24 h); 4 µg/mL (≈ 3.08 µM) in test [7] (ATCC9763, 48 h).
